In ChEMBL document CHEMBL3045069, “Antifeedant activity of quinones from Ventilago madaraspatana” (2001):

Legend:
Format in all cases: functional
[1] = test system: Henosepilachna vigintioctopunctata; assay: Antifeedant activity against Henosepilachna vigintioctopunctata in Solanum nigrum leaves assessed as mean leaf area fed at 1 ug/cm'2 by dual choice leaf disk bioassay (reference value: 0.75 +/- 0.06 to 0.92 +/- 0.05 cm'2)
[2] = test system: Henosepilachna vigintioctopunctata; assay: Antifeedant activity against Henosepilachna vigintioctopunctata in Solanum nigrum leaves assessed as mean leaf area fed at 10 ug/cm'2 by dual choice leaf disk bioassay (reference value: 0.78 +/- 0.04 to 0.99 +/- 0.17 cm'2)
Spodoptera litura [3] = assay: Antifeedant activity against Spodoptera litura in Ricinus communis leaves assessed as mean leaf area fed at 5 ug/cm'2 by dual choice leaf disc bioassay (reference value: 52.6 +/- 1.34 to 55.6 +/- 3.71 cm'2)
Spodoptera litura [4] = assay: Antifeedant activity against Spodoptera litura in Ricinus communis leaves assessed as mean leaf area fed at 10 ug/cm'2 by dual choice leaf disc bioassay (reference value: 52.8 +/- 2.50 to 53.6 +/- 4.76 cm'2)
Spodoptera litura [5] = assay: Antifeedant activity against Spodoptera litura in Ricinus communis leaves assessed as mean leaf area fed by dual choice leaf disc bioassay; parameters: concentration or dose not given beside the values
[6] = test system: Henosepilachna vigintioctopunctata; assay: Antifeedant activity against Henosepilachna vigintioctopunctata in Solanum nigrum leaves assessed as mean leaf area fed at 5 ug/cm'2 by dual choice leaf disk bioassay (reference value: 0.74 +/- 0.02 to 0.91 +/- 0.01 cm'2)
[7] = test system: Henosepilachna vigintioctopunctata; assay: Antifeedant activity against Henosepilachna vigintioctopunctata in Solanum nigrum leaves assessed as mean leaf area fed by dual choice leaf disk bioassay; parameters: concentration or dose not given beside the values
Spodoptera litura [8] = assay: Antifeedant activity against Spodoptera litura in Ricinus communis leaves assessed as mean leaf area fed at 1 ug/cm'2 by dual choice leaf disc bioassay (reference value: 53 +/- 2.44 to 53.6 +/- 2.61 cm'2)

SMILES	Activity [1]	Activity [2]	Activity (Spodoptera litura [3])	Activity (Spodoptera litura [4])	Activity (Spodoptera litura [5])	Activity [6]	Activity [7]	Activity (Spodoptera litura [8])
COc1c2c(c(O)c3c1C(=O)C1=C(C[C@H](C)O[C@@H]1C)C3=O)OCO2 [VENTILOQUINONE A]	0.46 cm2	0.07 cm2	19.8 cm2	7.2 cm2	40%	0.28 cm2	47%	25.2 cm2
C/C=C(\C)C(=O)O[C@H]1C[C@@H](OC(C)=O)[C@@]2(C(=O)OC)CO[C@H]3[C@@H](O)[C@@](C)([C@]45O[C@@]4(C)[C@H]4C[C@@H]5O[C@@H]5OC=C[C@@]54O)[C@H]4[C@]1(CO[C@]4(O)C(=O)OC)[C@@H]32 [AZADIRACTIN]	0.4 cm2	0.05 cm2	13.5 cm2	5 cm2	60%	0.2 cm2	56%	20.3 cm2
Cc1cc(O)c2c(c1)C(=O)c1cccc(O)c1C2=O [CHRYSOPHANOL]	0.61 cm2	0.25 cm2	24 cm2	13.6 cm2	20%	0.43 cm2	26%	40.4 cm2
COc1c2c(c(OC)c3c1C(=O)C1=C(C3=O)[C@@H](C)O[C@@H](C)C1)OCO2 [VENTILOQUINONE B]	0.54 cm2	0.17 cm2	22.5 cm2	11.6 cm2	29%	0.34 cm2	32%	33.8 cm2
Cc1cc(O)c2c(c1)C(=O)c1cc(O)cc(O)c1C2=O [EMODIN]	0.48 cm2	0.13 cm2	20.5 cm2	11 cm2	31%	0.3 cm2	44%	33.2 cm2
COc1c2c(c(O)c3c1C(=O)c1coc(C)c1C3=O)OCO2 [VENTILONE B]	0.56 cm2	0.19 cm2	23 cm2	13 cm2	27%	0.37 cm2	31%	34.9 cm2
COc1cc(OC)c2c(c1OC)C(=O)C1=C(C2=O)[C@@H](C)O[C@@H](C)C1 [VENTILOQUINONE E]	0.58 cm2	0.21 cm2	23.3 cm2	13.3 cm2	25%	0.39 cm2	29%	35.1 cm2
COc1cc(O)c2c(c1)C(=O)c1cc(C)cc(O)c1C2=O [PHYSCION]	0.52 cm2	0.15 cm2	21.6 cm2	11.3 cm2	30%	0.32 cm2	34%	33.4 cm2
